Test results: patent publication US20040235900A1, “Antimicrobial oxazolifinones with improved pharmacokinetic profile and safety advantages” (priority 2002, published 2004)

Legend:
[1] = Pharmacokinetic study, single I.V. bolus dose in beagle dog; format: in vivo; details: iv, single I.V. bolus dose 15 mg/kg (table title), Compound No. 4 and linezolid in 5% Tween, other compounds in cyclodextrin, serum; for concentration at 12 hr: read-out: C-12 hr; for AUC(0-t): read-out: AUC (0-24 hr)
Procedure: Blood samples were collected at time points of 0, 0.08 (not for oral), 0.25, 0.50, 1.0, 1.5, 2.0, 3.0, 4.0, 5.0, 6.0, 8.0, 10.0, 12.0 and 24.0 hours. To facilitate i.v. dosing and collection of blood samples, the dogs were implanted with cannula in cephalic vein. Serum obtained from blood samples was used for HPLC-based analysis.
Serum samples were extracted by solid phase extraction technique using Water's OASIS HLB cartridges. An HPLC-Diode array detection system was used for analysis. Prepared samples were chromatographed on a YMC-AM reversed phase column (150×4.6 mm ID; 5 μm) using an isocratic mobile phase acetate buffer (50 mmol ammonium acetate pH 6.6) acetonitrile, 66:34% v/v (for a representative compound of the invention, 68:32% v/v for compound Nos. 30, 3, 7 and 11 of U.S. Pat. No. 5,668,286, and 75:25% v/v for linezolid) at a flow rate of 1 ml/min, measured at λmax 254 nm. Independently prepared analytical standards and quality control samples were analyzed with each set of unknown samples.
The pharmacokinetics of a representative compound of the invention following single I.V. bolus dose administration of the compound in beagle dog is shown in Table 3.

reticulocytes = assay: Myelosuppressive potential: reticulocyte counts, 14-day oral dosing; format: in vivo, Wistar rats
Procedure: A group of 6 Wistar rats (3 male and 3 female) was exposed to a representative compound of the invention viz. compound No. 4 of the invention, by oral route at a single dose of 50 mg/kg per day for 14 consecutive days. Compound No.30 of U.S. Pat. No. 5,668,286 was also subjected to the same protocol. Linezolid (LNZ) was used as a comparator drug and was administered to rats (by oral route at a dose of 2×25 mg/kg per day for 14 consecutive days. Vehicle treated controls were maintained using identical experimental conditions. The treated as well as control rats were sacrificed 24 hr after the last dose.
A second parameter measured was the change in reticulocyte count, for which the following method was used.
Blood was collected on day 15 (24 hours after the last dose administration) from all the treated as well as control rats by retro-orbital sinus puncture using clean glass rat capillary tubes. […]
3 slides/animal were prepared according to NCCLS staining procedure for reticulocyte staining and counting. […] The percentage presence of reticulocyte was determined in 1000 erythrocytes and was expressed in terms of percentage of reticulocytes over erythrocytes. […]
Values in each of the first two columns above represent ratio of relative weight (calculated organ to body weight ratio) of spleen or thymus in drug treated animals v/s control animals. […]

MRSA 32 = assay: Murine assay procedure (systemic MRSA 32 infection, oral treatment); format: in vivo, swiss mice; details: Staphylococcus aureus; oral administration, doses 1 hr and 4 hrs after infection; MRSA 32 infected mice; percentage survival on Day 7
Procedure: Oxazolidinone new chemical entities (NCEs) were evaluated for their in vivo efficacy in a murine infection caused by multi-drug resistant, methicillin resistant Staphylococcus aureus strain, referred to as MRSA 32, a clinical isolate obtained from a hospitalised patient. The procedure used for the murine assay is as follows:
Four weeks old swiss mice of 18-22 gm body weight were infected with MRSA 32 strain suspended in 5% Hog gastric Mucin. The infecting dose of bacteria was set at 1-2×10^8 CFU/animal. The infecting dose was administered in 0.5 ml volume injected into peritonial cavity of mice. The treatment with oxazolidinone NCEs was started one hour after infection by administering 100-200 μl of the suspensions of oxazolidinone compounds in 5% Tween 80 by oral gavage. A repeat dose was similarly administered 3 hrs later. Each oxazolidinone NCE was tested at 2-3 different dosages in the range of 2.5 mg/kg to 20 mg/kg. In each dose group 6 mice were included. As an infection control group 12 mice were infected with MRSA 32 strain without giving any treatment. Normally untreated infected mice die within 24 hrs. due to the systemic spread of infection through out the animal body. […] For compounds affording protection of MRSA infected mice, ED50 dosages were calculated on the basis of percentage survival on Day 7 after infection.
The in-vivo ED50 values using the test compounds were determined essentially by the method as described in PCT WO 95/25106, U.S. Pat. No. 5,668,286 and EP 0 750 618 B1.

Cmax [1] | concentration at 12 hr [1] | half-life [1] | AUC(0-t) [1] | Ratio of % reticulocytes Retics (treated animal versus control animal) (reticulocytes; Wistar rats, oral, 14 consecutive days, 50 mg/kg per day (LNZ 2×25 mg/kg per day), blood on day 15, ratio less than 0.75 indicates myelosuppressive potential) | change in ratio of percentage reticulocytes of treated animal versus control animal (in words) (reticulocytes; rat, in vivo, po) | SMILES | ED50 (MRSA 32)
7160 ng/mL | 0 ng/mL | 2.41 h | 23300 ng·h/mL | 0.43 | – | CC(=O)NC[C@H]1CN(c2ccc(N3CCOCC3)c(F)c2)C(=O)O1 [Linezolid] | –
8280 ng/mL | 2640 ng/mL | 12.9 h | 80900 ng·h/mL | – | no significant change | CC(=O)NC[C@H]1CN(c2ccc(N3CCC(CC#N)CC3)c(F)c2)C(=O)O1 [Compound 4, (S)-N-{3-[4-(4-cyanomethyl-piperidin-1-yl)-3-fluoro-phenyl]-2-oxo-oxazolidin-5-ylmethyl}-acetamide] | 2.5 to 5 mg/kg
